Measured values as given in patent US7601856B2 (Wyeth, priority 2006, dated 2009).

Assays:
[1] = system: isolated rat bladder strips; experiment: Inhibition of contractions of isolated rat bladder strips; settings: 0.5 h, concentration eliciting 50% inhibition of pre-drug contractile activity, strips stimulated with additional 15 mM KCl, 30 minute challenge per concentration, read-out: IC50
Protocol: The compounds of the examples were tested to determine their ability to inhibit contractions of isolated rat bladder strips. See Foster, C. […] Malmgren, A. et al. J.Urol.
Male Sprague-Dawley rats (150-200 g) were obtained from ACE animal suppliers. Animals were allowed free access to food and water.
Animals were euthanized by CO2 asphyxiation followed by a bilateral thoracotomy. […] The bladder was opened and then cut into strips 1-2 mm in width and 7-10 mm in length. The strips were subsequently suspended in a 10 ml tissue bath under an initial resting tension of 1.5 g. The strips were held in place by two surgical clips one of which was attached to a fixed hook while the other was attached to an isometric force transducer. […] The carbachol was then washed out and the tissue allowed to relax to its resting level of activity. Following a further 30 minute period of recovery an additional 15 mM KCl were introduced into the tissue bath. […] Following stabilization of this enhanced level of contractile activity, incremental increases in the concentration of test compound or vehicle were introduced into the tissue bath. Contractile activity was measured for each compound or vehicle concentration during the last minute of a 30 minute challenge.
Isometric force developed by the bladder strips was measured using a force transducer and recorded on a polygraph. Contractile activity was assessed by measuring either the average amplitude of the contractions (baseline to peak force) occurring during a one minute period or, preferably, by integrating the contractile activity with respect to time (one minute measuring period).
The percentage inhibition of contractile activity evoked by each concentration of a given test compounds was used to generate a concentration-response curve.

melting point	IC50 [1] [nM]	SMILES
182 to 183 °C	200 to 700	CC(C)(C)CC(=O)Nc1ccc2oc3c(c2c1)CCCCC3 [Example 26, 3,3-DIMETHYL-N-[7,8,9,10-TETRAHYDRO-6H-Benzo[B]-CYCLOHEPTA[d]FURAN-2-YL]BUTYRAMIDE]
208 to 209 °C	100 to 400	CC(C)(C)C(=O)Nc1ccc2oc3c(c2c1)CCCCC3 [Example 27, 2,2-DIMETHYL-N-(6,7,8,9-TETRAHYDRO-5H-10-OXA-BENZO[A]AZULEN-3-YL)-PROPIONAMIDE]
162 to 163 °C	1000 to 5000	CC(C)CC(=O)Nc1ccc2oc3c(c2c1)CCCCC3 [Example 28, 3-METHYL-N-[7,8,9,10-TETRAHYDRO-6H-Benzo[B]-Cyclohepta[D]FURAN-2-YL]BUTYRAMIDE]
188 to 189 °C	1000 to 10000	O=C(CC1CCCCC1)Nc1ccc2oc3c(c2c1)CCCCC3 [Example 29, 2-CYCLOHEXYL-N-[7,8,9,10-TETRAHYDRO-6H-BENZO[B]-CYCLOHEPTA[d]FURAN-2-YL]ACETAMIDE]
157 to 158 °C	1000 to 5000	CC(C)(C)CC(=O)Nc1ccc2oc3c(c2c1)CCCCCC3 [Example 62, 3,3-DIMETHYL-N-[6,7,8,9,10,11-HEXAHYDRO-BENZO[B]-CYCLOOCTA[D]FURAN-2-YL]BUTYRAMIDE]
189 to 190 °C	110 to 250	CC(C)(C)C(=O)Nc1ccc2oc3c(c2c1)CCCCCC3 [Example 63, 2,2-DIMETHYL-N-[6,7,8,9,10,11-HEXAHYDRO-BENZO[B]-CYCLOOCTA[D]-FURAN-2-YL]PROPIONAMIDE]
154 to 155 °C	100 to 500	CC(C)CC(=O)Nc1ccc2oc3c(c2c1)CCCCCC3 [Example 64, 3-METHYL-N-[6,7,8,9,10,11-HEXAHYDRO-BENZO[B]-CYCLOOCTA[D]-FURAN-2-YL]BUTYRAMIDE]
180 to 181 °C	4000 to 10000	O=C(CC1CCCCC1)Nc1ccc2oc3c(c2c1)CCCCCC3 [Example 65, 2-CYCLOHEXYL-N-[6,7,8,9,10,11-HEXAHYDRO-BENZO[B]-CYCLOOCTA[D]FURAN-2-YL]ACETAMIDE]
310 to 312 °C (dec.)	4000 to 5000	CC(C)(C)NC(=O)Nc1ccc2oc3c(c2c1)CCCC3 [Example 83, 1-TERT-BUTYL-3-(6,7,8,9-TETRAHYDRO-DIBENZOFURAN-2-YL)-UREA]
179 to 180 °C	3000 to 5000	CCN(CC)C(=O)Nc1ccc2oc3c(c2c1)CCCC3 [Example 84, 1,1-DIETHYL-3-(6,7,8,9-TETRAHYDRO-DIBENZOFURAN-2-YL)-UREA]
